{"source": "paper PMC7205193", "about": "“Crystal structure of the mitochondrial protein mitoNEET bound to a benze-sulfonide ligand” (Communications chemistry, 2019)", "key": {"mitoNEET [1]": {"target": "T1, mitoNEET (Homo sapiens, UniProt Q9NZ45)", "T1 sequence (Q9NZ45 32-108 limits assumed)": "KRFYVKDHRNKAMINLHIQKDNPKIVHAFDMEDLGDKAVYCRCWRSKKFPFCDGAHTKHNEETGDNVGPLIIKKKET", "assay": "[3H]rosiglitazone displacement binding assay (SPA)", "conditions": "20 nM [3H]rosiglitazone, 60 min, room temperature, 50 mM Tris pH 8; ± std error", "method": "Recombinant mitoNEET was attached to nickel scintillation proximity assay (SPA) beads, and incubated with 20 nM [^3H] rosiglitazone (PerkinElmer) for 60 min at room temperature. The binding buffer was 50 mM Tris pH 8. White clear bottom 96-well plates were used for the assay, and the counts per minute analyzed in a MicroBeta Counter (Perkin Elmer). Data were analyzed as fraction of the total binding using a one-site model with GrapPad Prism 6 statistical software."}, "N2A mouse neuronal cells": {"system": "N2A mouse neuronal cells", "assay": "Seahorse bioenergetics mitochondrial stress test", "format": "cell-based", "conditions": "20 μM, three hours, vs DMSO vehicle", "method": "Mitochondrial bioenergetics were evaluated by the use of the Seahorse 96-well plate reader. Cells were grown in specialty plates from the company, at 20,000 cells per well of N2A mouse neuronal cells. The cells were treated with compounds at 20 μM for three hours, and then a mitochondrial stress test (Seahorse Biosciences) done using compounds which affect mitochondrial function, including oligomycin, FCCP, rotenone, and antimycin A."}, "mitoNEET [2]": {"target": "T1, mitoNEET", "assay": "Surface plasmon resonance", "conditions": "SPR, PBST pH 7.4, 1% DMSO, 25 °C, one-to-one binding model; read-out: equilibrium dissociation constant Kd"}, "[3]": {"system": "recombinant mitoNEET (mitoNEET-His protein)", "set-up": "method as in PMID 27687671", "conditions": "read-out: IC50, binding to mitoNEET; cited from earlier work"}, "mitoNEET [4]": {"target": "T1, mitoNEET", "assay": "Pull-down capture assay with furosemide probe on streptavidin beads", "format": "binding", "conditions": "0–100 μM furosemide, N2A cell lysate with recombinant mitoNEET, 100 μM probe, Western blot", "method": "For the ELISA assay, streptavidin plates (Pierce) were incubated for 30 min with a dose-dilution of the probe, after which an equal amount of recombinant mitoNEET protein was placed into the wells. After 2 h incubation at 4 °C, the plate was washed with a wash buffer with PBS pH 7.4 containing 0.05% Tween-20. The amount of mitoNEET was determine using a mitoNEET primary antibody (ProteinTech) 1:1000, followed by secondary anti-rabbit horseradish peroxidase antibody 1:2000 for 1 h. Detection of the color was done at 450 nm after addition of 3,3′,5,5′-tetramethylbenzidine solution and stopping solutions (Pierce). For the capture assay, N2A cells were lysed and collected with radio-immunoprecipitation assay buffer. […] At the end of the experiment, a magnetic tube rack was used to attract the magnetic beads. The solutions were washed with PBST (pH 7.4, 0.05% Tween-20), boiled for 5 min, and run on a BioRad 4–20% gel for Western Blot analysis (mitoNEET primary antibody 1:1000 and secondary HPR 1:2000)."}, "[5]": {"assay": "Dynamic light scattering aggregate formation", "format": "physicochemical", "conditions": "20 μM in PBS pH 7.4", "method": "This stock solution was diluted into PBS pH 7.4 to a final concentration of 20 μM, and the evaluated using a Malvern DLS Nano-ZS-90 system (Malvern Instruments)."}, "[6]": {"target": "T2, mitoNEET [2Fe-2S] cluster (Homo sapiens, UniProt Q9NZ45)", "T2 sequence (Q9NZ45 with tags, fused parts or gaps)": "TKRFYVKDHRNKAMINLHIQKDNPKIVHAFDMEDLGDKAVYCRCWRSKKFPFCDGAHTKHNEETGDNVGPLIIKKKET", "assay": "Iron-sulfur cluster release assay", "format": "biochemical", "conditions": "20 μM, pH 6.5, absorbance at 458 nm, room temperature", "method": "This method was adapted as previously described. MitoNEET was prepared as described earlier and a stock of 4 mg/mL was used in the assay, in a 50 mM Tris buffer pH 8. […] In each well 80 μL of the appropriate buffer, with either vehicle or compound, and then mitoNEET protein was added at 20 μL. The 96-well plate was analyzed in a BioTek Synergy 4 plate reader, reading at 458 nm for a period of time, at room temperature. For the pH 8, we used 50 mM Tris pH 8, with 100 mM NaCl, and for the pH 6.5, we used the 50 mM Bis–Tris pH 6.5 with 100 mM NaCl buffer solution."}, "[7]": {"target": "the molecule itself", "assay": "crystal structure; mitoNEET (20 mg/ml) with equimolar furosemide, sitting drop vapor diffusion, 60% v/v Tacsimate pH 7.0; 1.95 Å; MR-SAD with PDB 3REE as search model"}}, "note": "Several values for one entry are separate records, joined by “and”; a condition that tells them apart may be missing. Identical values can stand only once. Entries after “also recorded” stand apart in the source; their conditions may differ.", "data": [{"molecule": "CCCNc1cc(Cl)c(S(N)(=O)=O)cc1C(=O)O", "note": "[2a]", "values": [{"measurement": "IC50", "setting": "mitoNEET [1]", "value": "81 µM and 81.4 µM"}]}, {"molecule": "CCCCNc1cc(Cl)c(S(N)(=O)=O)cc1C(=O)O", "note": "[2b]", "values": [{"measurement": "IC50", "setting": "mitoNEET [1]", "value": "42.6 ± 1.03", "unit": "µM"}]}, {"molecule": "CCCCCNc1cc(Cl)c(S(N)(=O)=O)cc1C(=O)O", "note": "[2c]", "values": [{"measurement": "IC50", "setting": "mitoNEET [1]", "value": "54.3 ± 0.92", "unit": "µM"}]}, {"molecule": "CCCCCCNc1cc(Cl)c(S(N)(=O)=O)cc1C(=O)O", "note": "[2d]", "values": [{"measurement": "IC50", "setting": "mitoNEET [1]", "value": "9.12 ± 1.04", "unit": "µM"}]}, {"molecule": "CCCCCCCNc1cc(Cl)c(S(N)(=O)=O)cc1C(=O)O", "note": "[2e]", "values": [{"measurement": "IC50", "setting": "mitoNEET [1]", "value": "19.8 ± 0.9", "unit": "µM"}]}, {"molecule": "CCCCCCCCNc1cc(Cl)c(S(N)(=O)=O)cc1C(=O)O", "note": "[2f]", "values": [{"measurement": "ATP-linked oxygen consumption", "setting": "N2A mouse neuronal cells", "value": "increase"}, {"measurement": "basal respiration (oxygen consumption rate)", "setting": "N2A mouse neuronal cells", "value": "increase"}, {"measurement": "maximal respiration", "setting": "N2A mouse neuronal cells", "value": "increase"}, {"measurement": "IC50", "setting": "mitoNEET [1]", "value": "6.2 µM and 6.24 µM"}, {"measurement": "melting point", "value": "184 to 185", "unit": "°C"}]}, {"molecule": "NS(=O)(=O)c1cc(C(=O)O)c(NCc2ccccc2)cc1Cl", "note": "[2l]", "values": [{"measurement": "ATP-linked oxygen consumption", "setting": "N2A mouse neuronal cells", "value": "increase"}, {"measurement": "basal respiration (oxygen consumption rate)", "setting": "N2A mouse neuronal cells", "value": "increase"}, {"measurement": "maximal respiration", "setting": "N2A mouse neuronal cells", "value": "increase"}, {"measurement": "IC50", "setting": "mitoNEET [1]", "value": "20.7 µM and 20.8 µM"}]}, {"molecule": "NS(=O)(=O)c1cc(C(=O)O)c(NCc2ccc(F)cc2)cc1Cl", "note": "[2n]", "values": [{"measurement": "IC50", "setting": "mitoNEET [1]", "value": "8.82 ± 1", "unit": "µM"}]}, {"molecule": "NS(=O)(=O)c1cc(C(=O)O)c(NCc2cccs2)cc1Cl", "note": "[2p]", "values": [{"measurement": "IC50", "setting": "mitoNEET [1]", "value": "12.4 ± 1.23", "unit": "µM"}]}, {"molecule": "CCCCC/C=C\\C/C=C\\C/C=C\\C/C=C\\CCCC(=O)O", "note": "[Arachidonic acid, reference compound]", "values": [{"measurement": "IC50", "setting": "mitoNEET [1]", "value": "2.93 ± 1.06", "unit": "µM"}]}, {"molecule": "NS(=O)(=O)c1cc(C(=O)O)c(NCc2ccco2)cc1Cl", "note": "[Furosemide, furosemide]", "values": [{"measurement": "Kd", "setting": "mitoNEET [2]", "value": 53.5, "unit": "µM"}, {"measurement": "basal respiration (oxygen consumption rate)", "setting": "N2A mouse neuronal cells", "value": "increase"}, {"measurement": "maximal respiration", "setting": "N2A mouse neuronal cells", "value": "increase"}, {"measurement": "proton leak", "setting": "N2A mouse neuronal cells", "value": "trended to increase"}, {"measurement": "IC50", "setting": "[3]", "value": "~40", "unit": "µM"}, {"measurement": "mitoNEET captured by furosemide probe in presence of competitor", "setting": "mitoNEET [4]", "value": "dose-dependently the reduction of mitoNEET captured; also recorded: able to reduce the amount of mitoNEET captured"}, {"measurement": "IC50", "setting": "mitoNEET [1]", "value": "29.3 ± 0.97", "unit": "µM"}, {"measurement": "aggregate formation in solution (DLS)", "setting": "[5]", "value": "did not observe any aggregate formation"}, {"measurement": "iron-sulfur cluster release from mitoNEET", "setting": "[6]", "value": "able to slow down cluster release"}, {"measurement": "iron-sulfur cluster release from mitoNEET", "setting": "[6]; listed as furosemide", "value": "able to reduce cluster loss"}]}, {"molecule": "NS(=O)(=O)c1cc(C(=O)O)c(Cl)cc1Cl", "note": "[compound 1, 2,4-dichloro-5-sulfamoylbenzoic acid, reference compound]", "values": [{"measurement": "IC50", "setting": "mitoNEET [1]", "value": "1021 ± 0.96", "unit": "µM"}]}, {"molecule": "soluble domain of human mitoNEET (domain or fragment, mitoNEET (gene cisd1), human, soluble domain; Each subunit holds a [2Fe-2S] cluster (His87 and three cysteines); also called mN; MN; source: E. coli Rosetta 2 (DE3), purified (Ni-NTA, SUMO protease digestion, second Ni-NTA, size exclusion chromatography); not shown: His-SUMO, N-terminal, cleaved) TKRFYVKDHRNKAMINLHIQKDNPKIVHAFDMEDLGDKAVYCRCWRSKKFPFCDGAHTKHNEETGDNVGPLIIKKKET", "values": [{"measurement": "binding result", "setting": "[7]", "value": "binds"}]}]}
